In US11839613B2, “Pyrimidine derivatives as PGE2 receptor modulators” (IDORSIA PHARMACEUTICALS LTD, priority 2017, dated 2023) one finds IC50 data, which are given here for 26 compounds.

One assay addresses EP2 (Homo sapiens (Human), UniProt P43116). The assay is described as follows: hEP2 cAMP assay (SF295 glioblastoma cells, HTRF cAMP). The class given is cell-based. The note with it: antagonistic activity. An excerpt:
(§1) Human tumor cell lines expressing endogenously either EP4 or EP2 are used and cAMP accumulation in cells upon PGE2 stimulation is monitored. SF295 glioblastoma cells express high endogenous EP2 and no EP4, whereas BT549 breast cancer cells, express high endogenous EP4 levels and very low EP2 levels.
(§2) As a detection method for cAMP the HTRF (homogeneous time resolved fluorescence) Cisbio kit (HTRF cAMP dynamic 2 kit 20'000 tests Cisbio Cat. #62AM4PEC) was used, which is based on a competitive immunoassay using a Cryptate-labeled anti-cAMP antibody and d2-labeled cAMP. Native cAMP produced by cells or unlabeled cAMP (for the standard curve) compete with exogenously added d2-labeled cAMP (acceptor) for binding to monoclonal anti-cAMP-Eu3+Cryptate (donor). A FRET signal (Fluorescence Resonance Energy Transfer) is obtained only if the labeled anti-cAMP antibody binds the d2 labelled cAMP, thus the specific signal (i.e. energy transfer) is inversely proportional to the concentration of cAMP in the standard or sample.
(§3) Cells are counted washed and resuspended in assay buffer (AB; HBSS, 20 mM HEPES, 0.2% BSA; 2 mM IBMX).
Plate is pre-incubated 45 minutes at RT. […] Plate is incubated 30 minutes at RT.
On the technique in general: cAMP levels reflect the balance of adenylyl cyclase and phosphodiesterase activity.

The target in another assay is EP4 (Homo sapiens (Human), UniProt P35408). The assay is described as follows: hEP4 cAMP assay (BT549 breast cancer cells, HTRF cAMP). The note with it: antagonistic activity, PGE2 6 nM. Format: cell-based.
Chain of EP4 (P35408 whole entry): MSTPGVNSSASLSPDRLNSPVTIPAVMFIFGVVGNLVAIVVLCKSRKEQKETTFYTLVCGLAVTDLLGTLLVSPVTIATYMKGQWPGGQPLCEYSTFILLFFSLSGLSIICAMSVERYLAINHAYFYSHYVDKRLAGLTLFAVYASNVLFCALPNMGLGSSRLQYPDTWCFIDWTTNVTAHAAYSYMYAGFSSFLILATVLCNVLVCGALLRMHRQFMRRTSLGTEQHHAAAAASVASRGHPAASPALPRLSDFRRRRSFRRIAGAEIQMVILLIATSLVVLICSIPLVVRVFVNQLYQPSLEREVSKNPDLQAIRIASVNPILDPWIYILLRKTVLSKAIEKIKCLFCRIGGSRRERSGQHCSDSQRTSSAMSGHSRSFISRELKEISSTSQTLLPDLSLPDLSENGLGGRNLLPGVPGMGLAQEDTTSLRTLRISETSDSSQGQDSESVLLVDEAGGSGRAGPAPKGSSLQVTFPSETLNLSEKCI
Text: as §1, §2, §3
Plate is pre-incubated 45 minutes at RT. Subsequently, 2.5 microliters of PGE2 (final conc. 6 nM) are transferred into the assay plate. Plate is incubated 30 minutes at RT.

In the next assay the target is PTGER4 (EP4) (Homo sapiens (Human), UniProt P35408). The assay is described as follows: cell-based.
Chain of PTGER4 (EP4) (P35408 whole entry): as above
For another assay, the target named is PTGER2 (EP2) (Homo sapiens (Human), UniProt P43116). The assay is described as follows: hEP2 b-arrestin assay (PathHunter HEK 293 PTGER2 b-arrestin cells). The class given is cell-based. The note with it: antagonistic activity, beta-arrestin assay; read-out: hEP2 b-arr IC50. Here is the method:
Plate is pre-incubated 15 minutes at 37° C. Then five microliters of PGE2 (final conc. 5 μM) are transferred into the assay plate. Plate is incubated 120 minutes at 37° C.
(each concentration is measured in duplicate)

What is called IC50 is the concentration that gives 50% inhibition.

Structures are written as SMILES.

Chain of PTGER2 (EP2) (P43116 whole entry): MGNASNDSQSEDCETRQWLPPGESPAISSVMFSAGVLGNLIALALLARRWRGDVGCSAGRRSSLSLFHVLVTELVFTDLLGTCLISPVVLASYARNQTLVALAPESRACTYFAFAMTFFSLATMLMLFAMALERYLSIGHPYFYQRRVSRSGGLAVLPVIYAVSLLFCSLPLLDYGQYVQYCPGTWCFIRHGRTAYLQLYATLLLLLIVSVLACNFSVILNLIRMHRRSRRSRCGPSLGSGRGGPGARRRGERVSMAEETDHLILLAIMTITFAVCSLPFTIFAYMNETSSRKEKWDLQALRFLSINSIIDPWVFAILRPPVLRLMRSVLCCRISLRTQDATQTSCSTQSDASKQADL
Chain of EP2 (P43116 whole entry): as above

Regarding `CCOc1cc(-c2cc(NCCc3ccc4ccsc4c3)ncn2)ccc1C(=O)O` [Ex 167, 4-[6-(2-Benzo[b]thiophen-6-yl-ethylamino)-pyrimidin-4-yl]-2-ethoxy-benzoic acid], the figures for the IC50 against EP2, against EP4 and on PTGER4 (EP4) were 714 nM, 166 nM and 361 nM, respectively.
The corresponding values for `CSc1cc(-c2cc(NCCc3ccc4c(c3)OCCC4)ncn2)ccc1C(=O)O` [Ex 285, 4-[6-(2-Chroman-7-yl-ethylamino)-pyrimidin-4-yl]-2-methylsulfanyl-benzoic acid] are 7520 nM, 513 nM and 341 nM.
The corresponding values for `CSc1cc(-c2cc(NCCc3cc(F)c4c(c3)OCCO4)ncn2)ccc1C(=O)O` [Ex 216] are 490 nM, 267 nM and 307 nM.
Consider `CCOc1cc(-c2cc(NCCc3c(F)cc4ncccc4c3F)ncn2)sc1-c1noc(=O)[nH]1` [Example 346, 3-(5-{6-[2-(5,7-Difluoro-quinolin-6-yl)-ethylamino]-pyrimidin-4-yl}-3-ethoxy-thiophen-2-yl)-[1,2,4]oxadiazol-5(4H)-one], for which the IC50 against EP2 amounted to 282 nM; against EP4, 110 nM; on PTGER4 (EP4), 57 nM.
`CCOc1cc(-c2cc(NCCc3cc4ccccc4cc3C)ncn2)ccc1C(=O)O` [Ex 240, 2-Ethoxy-4-{6-[2-(3-methyl-naphthalen-2-yl)-ethylamino]-pyrimidin-4-yl}-benzoic acid]: the IC50 is 816 nM against EP2, 346 nM against EP4 and 598 nM at PTGER4 (EP4).
As for `CCOc1cc(-c2cc(NCCc3ccc4ccccc4c3)ncn2)sc1-c1noc(=O)[nH]1` [Example 345, 3-{3-Ethoxy-5-[6-(2-naphthalen-2-yl-ethylamino)-pyrimidin-4-yl]-thiophen-2-yl}-[1,2,4]oxadiazol-5(4H)-one], the IC50 on EP2 came out at 683 nM; on EP4 it was 30 nM; on PTGER4 (EP4), 6 nM.
On to `CCOc1cc(-c2cc(NCCc3cc4c(cc3OC)OCO4)ncn2)ccc1OCC(=O)O` [Ex 239], for which the results for the IC50 at PTGER2 (EP2), against EP2 and against EP4 were 134 nM, 222 nM and 346 nM, respectively.
In the case of `CCOc1cc(-c2cc(NCCc3cc4c(cc3OC(F)F)OCO4)ncn2)ccc1C(=O)O` [Ex 325], the IC50 came to 441 nM on PTGER2 (EP2), 332 nM on EP2 and 887 nM on EP4.
`CCOc1cc(-c2cc(NCCc3ccc4ccccc4c3)ncn2)sc1C(=O)O` [Ex 36, 3-Ethoxy-5-[6-(2-naphthalen-2-yl-ethylamino)-pyrimidin-4-yl]-thiophene-2-carboxylic acid]: the IC50 against EP2 is 557 nM; against EP4, 18 nM; against PTGER4 (EP4), 20 nM.
In the case of `CCSc1cc(-c2cc(NCCc3cc4ccoc4cc3F)ncn2)ccc1C(=O)O` [Ex 275], the results for the IC50 on PTGER2 (EP2), at EP2 and on EP4 were 67 nM, 102 nM and 468 nM, respectively.
The corresponding values for `CCOc1cc(-c2cc(NCCc3cc4ccoc4cc3F)ncn2)ccc1OC(C)C(=O)O` (stereo not drawn) [Ex 236] are 121 nM, 147 nM and 327 nM.
Regarding `CCOc1cc(-c2cc(NCCc3c(OC)cc4occc4c3C)ncn2)ccc1C(=O)O` [Ex 221, 2-Ethoxy-4-{6-[2-(6-methoxy-4-methyl-benzofuran-5-yl)-ethylamino]-pyrimidin-4-yl}-benzoic acid], the results for the IC50 on PTGER2 (EP2), at EP2 and at EP4 were 8 nM, 2 nM and 285 nM, respectively.
For the compound `CCOc1cc(-c2cc(NCCc3cc4c(cnn4C)cc3OC)ncn2)sc1C(=O)O` [Ex 251], the values for the IC50 at PTGER2 (EP2), against EP2 and against EP4 were 105 nM, 132 nM and 369 nM, respectively.
With `CCOc1cc(-c2cc(NCCc3ccc4cc[nH]c4c3)ncn2)ccc1OC(C)C(=O)O` (stereo not drawn) [Ex 223], the IC50 on PTGER2 (EP2) was found to be 329 nM; against EP2 it was 199 nM; on EP4 it was 288 nM.
For `Fc1cc2ncccc2c(F)c1CCNc1cc(-c2ccc3[nH]ccc3c2)ncn1` [Ex 330, [2-(5,7-Difluoro-quinolin-6-yl)-ethyl]-[6-(1H-indol-5-yl)-pyrimidin-4-yl]-amine], the results for the half-maximal inhibitory concentration (IC50) on PTGER2 (EP2), against EP2 and on EP4 were 158 nM, 249 nM and 1040 nM, respectively.
Take `CCOc1cc(-c2cc(NCCc3cc4ccoc4cc3F)ncn2)ccc1C(=O)O` [Ex 227, 2-Ethoxy-4-{6-[2-(6-fluoro-benzofuran-5-yl)-ethylamino]-pyrimidin-4-yl}-benzoic acid]: the IC50 was 142 nM at PTGER2 (EP2), 88 nM against EP2 and 293 nM on EP4.
Regarding `CCOc1cc(-c2cc(NCCc3cc4c(cc3OC)OCCO4)ncn2)ccc1C(=O)O` [Ex 286], the IC50 is 198 nM at PTGER2 (EP2), 86 nM against EP2 and 515 nM against EP4.
As to `Cn1[nH]c(=O)c2ccc(-c3cc(NCCc4ccc5cc[nH]c5c4)ncn3)cc21` [Ex 249], the values for the IC50 on PTGER2 (EP2), against EP2 and at EP4 were 196 nM, 171 nM and 368 nM, respectively.
For `CCOc1cc(-c2cc(NCCc3cc4c(cc3C)OCCO4)ncn2)ccc1C(=O)O` [Ex 327], in that order: 296 nM, 159 nM and 920 nM.
Take `c1nc(NCCc2ccc3cc[nH]c3c2)cc(-c2ccc3[nH]ccc3c2)n1` [Ex 226, [2-(1H-Indol-6-yl)-ethyl]-[6-(1H-indol-5-yl)-pyrimidin-4-yl]-amine]: the values for the half-inhibitory concentration (IC50) at PTGER2 (EP2), on EP2 and against EP4 were 151 nM, 250 nM and 291 nM, respectively.
For the compound `O=C(O)c1ccc(-c2cc(NCCc3c(F)cc4ncccc4c3F)ncn2)cc1OC1CCC1` [Ex 228], the values for the IC50 at PTGER2 (EP2), at EP2 and at EP4 were 392 nM, 194 nM and 300 nM, respectively.
Regarding `O=C(O)c1ccc(-c2cc(NCCc3ccc4cc[nH]c4c3)ncn2)cc1OC1CCC1` [Ex 278, 2-Cyclobutoxy-4-{6-[2-(1H-indol-6-yl)-ethylamino]-pyrimidin-4-yl}-benzoic acid], the results for the IC50 at PTGER2 (EP2), on EP2 and against EP4 were 281 nM, 187 nM and 477 nM, respectively.
For the compound `CCOc1cc(-c2cc(NCCc3cc4c(cc3OC(F)F)OCO4)ncn2)ccc1OCC(=O)O` [Ex 217], the half-inhibitory concentration (IC50) is 238 nM at PTGER2 (EP2), 321 nM on EP2 and 272 nM on EP4.
On to `CSc1cc(-c2cc(NCCc3cc4ccoc4cc3F)ncn2)ccc1C(=O)O` [Ex 238, 4-{6-[2-(6-Fluoro-benzofuran-5-yl)-ethylamino]-pyrimidin-4-yl}-2-methylsulfanyl-benzoic acid], for which the IC50 on PTGER2 (EP2) is 55 nM; against EP2, 75 nM; against EP4 it was 343 nM.
Take `CCOc1cc(-c2cc(NCCc3cc4ccoc4cc3OC)ncn2)ccc1OC(C)C(=O)O` (stereo not drawn) [Ex 233, 2-(2-Ethoxy-4-{6-[2-(6-methoxy-benzofuran-5-yl)-ethylamino]-pyrimidin-4-yl}-phenoxy)-propionic acid]: the concentration for half-maximal inhibition (IC50) on PTGER2 (EP2) was 29 nM; against EP2 it was 76 nM; at EP4 it was 322 nM.
Turning to `Fc1cc2ncccc2c(F)c1CCNc1cc(-c2ccc3cnccc3c2)ncn1` [Ex 318, [2-(5,7-Difluoro-quinolin-6-yl)-ethyl]-(6-isoquinolin-6-yl-pyrimidin-4-yl)-amine], the IC50 is 408 nM on PTGER2 (EP2), 247 nM against EP2 and 753 nM against EP4.
